Results from patent US10570129B2 (Zoetis Services LLC, priority 2015, dated 2020).

What was measured:
D. immitis microfilariae = test: Dirofilaria immitis, microfilariae (DiMF) in vitro motility assay; type: cell-based; conditions: Dirofilaria immitis, 72 h, read-out: DiMF minimally effective dose (MEC)
Haemonchus contortus L3 = test: microbe, parasite or virus in culture; type: cell-based; conditions: Haemonchus contortus, 96 h, read-out: HcL3 Minimal Effective Concentration (MEC)

Compound	minimal effective concentration (D. immitis microfilariae) [µM]	minimal effective concentration (Haemonchus contortus L3) [µM]
O=C(NCc1ccnc(Cl)c1)n1c2c(c3cc(N4CCCC4)ccc31)CN(C/C=C/c1ccc(Cl)c(F)c1)CC2 [Example 506, (E)-2-(3-(4-chloro-3-fluorophenyl)allyl)-N-((2-chloropyridin-4-yl)methyl)-8-(pyrrolidin-1-yl)-1,2,3,4-tetrahydro-5H-pyrido[4,3-b]indole-5-carboxamide]	> 100	7.6
N#Cc1ccc2c(c1)c1c(n2C(=O)NCc2ccnc(Cl)c2)CCN(C/C=C/c2ccc(F)cc2Cl)C1 [Example 87, (E)-2-(3-(2-chloro-4-fluorophenyl)allyl)-N-((2-chloropyridin-4-yl)methyl)-8-cyano-1,2,3,4-tetrahydro-5H-pyrido[4,3-b]indole-5-carboxamide]	5.7	0.2
N#Cc1ccc2c(c1)c1c(n2C(=O)NCc2ccnc(Cl)c2)CCN(C/C=C/c2ccc(Cl)cc2)C1 [Example 92, (E)-2-(3-(4-chlorophenyl)allyl)-N-((2-chloropyridin-4-yl)methyl)-8-cyano-1,2,3,4-tetrahydro-5H-pyrido[4,3-b]indole-5-carboxamide]	3.3	0.3
O=C(NCc1ccnc(Cl)c1)n1c2c(c3ccc(OC(F)(F)F)cc31)CN(C/C=C/c1cc(F)c(F)c(F)c1)CC2 [Example 350, (E)-N-((2-chloropyridin-4-yl)methyl)-7-(trifluoromethoxy)-2-(3-(3,4,5-trifluorophenyl)allyl)-1,2,3,4-tetrahydro-5H-pyrido[4,3-b]indole-5-carboxamide]	1.3	0.2
O=C(NCc1ccnc(Cl)c1)n1c2c(c3cc(Br)c(OC(F)(F)F)cc31)CN(C/C=C/c1ccc(Cl)cc1)CC2 [Example 492, (E)-8-bromo-2-(3-(4-chlorophenyl)allyl)-N-((2-chloropyridin-4-yl)methyl)-7-(trifluoromethoxy)-1,2,3,4-tetrahydro-5H-pyrido[4,3-b]indole-5-carboxamide]	0.5	1.8
N#Cc1ccc2c3c(n(C(=O)NCc4ccnc(Cl)c4)c2c1)CCN(C/C=C/c1ccc(F)c(Br)c1)C3 [Example 12, (E)-2-(3-(3-bromo-4-fluorophenyl)allyl)-N-((2-chloropyridin-4-yl)methyl)-7-cyano-1,2,3,4-tetrahydro-5H-pyrido[4,3-b]indole-5-carboxamide]	18.2	1.8
N#Cc1ccc(/C=C/CN2CCc3c(c4cc(OC(F)(F)F)ccc4n3C(=O)NCc3ccnc(Cl)c3)C2)cc1F [Example 386, (E)-N-((2-chloropyridin-4-yl)methyl)-2-(3-(4-cyano-3-fluorophenyl)allyl)-8-(trifluoromethoxy)-1,2,3,4-tetrahydro-5H-pyrido[4,3-b]indole-5-carboxamide]	3.3	0.2
O=C(NCc1ccnc(Cl)c1)n1c2c(c3ccc(OC(F)(F)F)cc31)CN(C/C=C/c1ccc(C(F)(F)F)cn1)CC2 [Example 342, (E)-N-((2-chloropyridin-4-yl)methyl)-7-(trifluoromethoxy)-2-(3-(5-(trifluoromethyl)pyridin-2-yl)allyl)-1,2,3,4-tetrahydro-5H-pyrido[4,3-b]indole-5-carboxamide]	10	1.8
N#Cc1ccc2c(c1)c1c(n2C(=O)NCc2ccnc(Cl)c2)CCN(C/C=C/c2ccc(Br)c(F)c2)C1 [Example 85, (E)-2-(3-(4-bromo-3-fluorophenyl)allyl)-N-((2-chloropyridin-4-yl)methyl)-8-cyano-1,2,3,4-tetrahydro-5H-pyrido[4,3-b]indole-5-carboxamide]	> 100	0.1
O=C(NCc1ccnc(Cl)c1)n1c2c(c3cc(OC(F)(F)F)ccc31)CN(C/C=C/c1ccc(F)cc1F)CC2 [Example 387, (E)-N-((2-chloropyridin-4-yl)methyl)-2-(3-(2,4-difluorophenyl)allyl)-8-(trifluoromethoxy)-1,2,3,4-tetrahydro-5H-pyrido[4,3-b]indole-5-carboxamide]	3.3	0.2
N#Cc1ccc2c(c1)c1c(n2C(=O)NCc2ccnc(Cl)c2)CCN(C/C=C/c2ccc(Cl)cc2F)C1 [Example 75, (E)-2-(3-(4-chloro-2-fluorophenyl)allyl)-N-((2-chloropyridin-4-yl)methyl)-8-cyano-1,2,3,4-tetrahydro-5H-pyrido[4,3-b]indole-5-carboxamide]	10.2	0.1
O=C(NCc1ccnc(F)c1)n1c2c(c3ccc(Cl)cc31)CN(C/C=C/c1ccc(F)c(Cl)c1)CC2 [Example 227, (E)-7-chloro-2-(3-(3-chloro-4-fluorophenyl)allyl)-N-((2-fluoropyridin-4-yl)methyl)-1,2,3,4-tetrahydro-5H-pyrido[4,3-b]indole-5-carboxamide]	1.8	5.7
N#Cc1ccc2c3c(n(C(=O)NCc4ccnc(F)c4)c2c1)CCN(C/C=C/c1ccc(Cl)cc1)C3 [Example 55, (E)-2-(3-(4-chlorophenyl)allyl)-7-cyano-N-((2-fluoropyridin-4-yl)methyl)-1,2,3,4-tetrahydro-5H-pyrido[4,3-b]indole-5-carboxamide]	10	> 100
N#Cc1ccc(/C=C/CN2CCc3c(c4cc(Cl)c(Cl)cc4n3C(=O)NCc3ccnc(Cl)c3)C2)cc1 [Example 279, (E)-7,8-dichloro-N-((2-chloropyridin-4-yl)methyl)-2-(3-(4-cyanophenyl)allyl)-1,2,3,4-tetrahydro-5H-pyrido[4,3-b]indole-5-carboxamide]	> 100	1.8
O=C(NCc1ccnc(Cl)c1)n1c2c(c3ccc(Cl)cc31)CN(C/C=C/c1ccc(Cl)c(Cl)c1)CC2 [Example 215, (E)-7-chloro-N-((2-chloropyridin-4-yl)methyl)-2-(3-(3,4-dichlorophenyl)allyl)-1,2,3,4-tetrahydro-5H-pyrido[4,3-b]indole-5-carboxamide]	10	0.5
CCOc1cc2c(cc1Br)c1c(n2C(=O)NCc2ccnc(Cl)c2)CCN(C/C=C/c2ccc(Cl)cc2)C1 [Example 468, (E)-8-bromo-2-(3-(4-chlorophenyl)allyl)-N-((2-chloropyridin-4-yl)methyl)-7-ethoxy-1,2,3,4-tetrahydro-5H-pyrido[4,3-b]indole-5-carboxamide]	1.8	0.2
O=C(NCc1ccnc(Cl)c1)n1c2c(c3ccc(Cl)cc31)CN(C/C=C/c1ccc(F)cc1)CC2 [Example 217, (E)-7-chloro-N-((2-chloropyridin-4-yl)methyl)-2-(3-(4-fluorophenyl)allyl)-1,2,3,4-tetrahydro-5H-pyrido[4,3-b]indole-5-carboxamide]	3.3	1.8
O=C(NCc1ccnc(Cl)c1)n1c2c(c3ccc(Cl)cc31)CN(C/C=C/c1ccc(OC(F)(F)F)cc1)CC2 [Example 221, (E)-7-chloro-N-((2-chloropyridin-4-yl)methyl)-2-(3-(4-(trifluoromethoxy)-phenyl)allyl)-1,2,3,4-tetrahydro-5H-pyrido[4,3-b]indole-5-carboxamide]	3.3	> 100
